Experimental findings from patent US20230140290A1, “SALICYLAMIDE DERIVATIVES AND RELATED METHODS OF MAKING” (THE BOARD OF REGENTS OF THE UNIVERSITY OF TEXAS SY, priority 2020, published 2023) are described below.

As usually defined, the inhibition is the percentage by which the read-out fell short of the control. As usually defined, the IC50 is the concentration that gives 50% inhibition. The term EC50 denotes the concentration that produces a half-maximal response.

Some results are limits rather than exact numbers.

Type in all cases: cell-based, HAdV-5
Assay [1] relates to HAdV5-GFP. Description: Plaque assay (inhibition of HAdV plaque formation). To be noted: for Selectivity index (SI): ratio of CC50 to IC50 in plaque assay; for inhibition at 10 µM: read-out: Plaque Assay (%) Inhibition (10 μM); for IC50: read-out: Plaque Assay IC50 (μM), HAdV5-GFP, low MOI, 293β5 cell line. The method in brief:
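Compounds were present in the post-infection mixture at 10 μM, or at 10 to 0.3 μM for dose-response. Infection used low MOI HAdV5-GFP (0.06 vp/cell) on 80-90% confluent cells, 2 h rocking at 37° C, then a PBS wash.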

Assay [2] relates to HAdV5-GFP. Description: Entry assay (HAdV5-mediated GFP expression). Particulars: for inhibition at 50 µM: read-out: (%) Inhibition Entry Assay (50 μM). In short, it runs like this: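 Human A549 cells (3×10^5/well) infected with HAdV5-GFP at 2000 vp/cell with compounds at 50 μM or in dose-response, in triplicate. Incubation 48 h at 37° C., 5% CO2. Standard infection curve from 2-fold virus dilutions without compound run in parallel.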

Assay [3] has as its system wild-type HAdV5. Description: HAdV DNA quantification by real-time PCR (DNA replication). Particulars: 24 h. (Real-time PCR tracks product formation cycle by cycle.)
The test system of assay [4] is wild-type HAdV5. Description: Nuclear-associated HAdV genomes (real-time PCR).
Setting [5] is: A549, read-out: IC50 Entry Assay (μM), HAdV5-GFP, high MOI, A549 cell line.
Where [6] appears, read: FIG. 4, concentrations by CC50 (2-50 μM).
[7] abbreviates: FIG. 3, 45 min post infection, concentrations by CC50 (2-50 μM).

With `O=C(Nc1ccc([N+](=O)[O-])cc1F)c1cc(Cl)ccc1O` [Compound 11, 5-Chloro-N-(2-fluoro-4-nitrophenyl)-2-hydroxybenzamide], in assay [1], the “Selectivity index (SI)” value is given as 218.2, the inhibition at 10 µM amounted to 98.7 ± 1.9% and the IC50 is 0.05 µM. In addition, the inhibition at 50 µM in assay [2] (A549, 48 h) amounted to 92.4 ± 0.2%. Further, the IC50 in assay [2] (setting [5]) amounted to 1.57 ± 0.97 µM. In addition, the “inhibition of HAdV-5 DNA replication (qPCR)” value (from here on “inhibition … (qPCR)”) in assay [3] (setting [6]) is reported as “low inhibition”. The “amount of nuclear-associated HAdV genomes versus DMSO” value in assay [4] (setting [7]) is recorded as “partially inhibited”.
On to `O=C(Nc1cc(F)cc(C(F)(F)F)c1)c1cc(Cl)ccc1O` [Compound 17, 5-Chloro-N-(3-fluoro-5-(trifluoromethyl)phenyl)-2-hydroxybenzamide], for which, in assay [1], the “Selectivity index (SI)” value came to 666.7 and the inhibition at 10 µM is 100%. Also, the inhibition at 50 µM in assay [2] (A549, 48 h) is 100%. Also, in assay [2] (setting [5]), the half-maximal inhibitory concentration (IC50) turned out to be 2.23 ± 0.58 µM. Besides, the “inhibition … (qPCR)” value in assay [3] (setting [6]) is on record as “low inhibition”. Also, the “amount of nuclear-associated HAdV genomes versus DMSO” value in assay [4] (setting [7]) is “no significant differences”.
Take `CC(C)[C@H](NC(=O)c1cc(Cl)ccc1O)C(=O)Nc1ccc([N+](=O)[O-])cc1Cl` [Compound 58, (S)-5-Chloro-N-(1-((2-chloro-4-nitrophenyl)amino)-3-methyl-1-oxobutan-2-yl)-2-hydroxybenzamide]: in assay [1], the “Selectivity index (SI)” value turned out to be 444.4 and the inhibition at 10 µM stood at 100%. Moreover, the inhibition at 50 µM in assay [2] (A549, 48 h) worked out at 81.8%. For the same molecule, the IC50 in assay [2] (setting [5]) was 11.2 µM. Further, in assay [3] (setting [6]), the “inhibition … (qPCR)” value was “low inhibition”. Further, the “amount of nuclear-associated HAdV genomes versus DMSO” value in assay [4] (setting [7]) is “no significant differences”.
In the case of `O=C(N[C@H](Cc1ccccc1)C(=O)Nc1ccc([N+](=O)[O-])cc1Cl)c1cc(Cl)ccc1O` [Compound 60, (R)-5-Chloro-N-(1-((2-chloro-4-nitrophenyl)amino)-1-oxo-3-phenylpropan-2-yl)-2-hydroxybenzamide], in assay [1], the “Selectivity index (SI)” value came out at 259.7, the inhibition at 10 µM amounted to 100% and the IC50 was determined as 0.3 µM. For the same molecule, the inhibition at 50 µM in assay [2] (A549, 48 h) was 68.6%. The IC50 in assay [2] (setting [5]) worked out at 9.7 µM. Besides, the “inhibition … (qPCR)” value in assay [3] (setting [6]) is recorded as “significant (p≤0.0001) inhibitory activity”. Further, the “amount of nuclear-associated HAdV genomes versus DMSO” value in assay [4] (setting [7]) is “partially inhibited”.
Turning to `CC1(Nc2ccc(NC(=O)c3cc(Cl)ccc3O)c(Cl)c2)CCCC1` [Compound 87, 5-Chloro-N-(2-chloro-4-((1-methylcyclopentyl)amino)phenyl)-2-hydroxybenzamide], in assay [1], the “Selectivity index (SI)” value stood at 580.7. In assay [1], the inhibition at 10 µM was 100%. The values for the IC50 in assay [1], in assay [2] (setting [5]) and in assay [2] ({}) were 0.27 µM, 15.2 to 30.8 µM and 15.2 ± 5.1 µM, respectively. Further, the inhibition at 50 µM in assay [2] (A549, 48 h) stood at 85.4%. Besides, the “inhibition … (qPCR)” value in assay [3] (FIG. 6A, 10-fold plaque IC50) is listed as “moderate inhibition”. The “amount of nuclear-associated HAdV genomes versus DMSO” value in assay [4] (FIG. 5A, 45 min post-infection, 10-fold plaque IC50) was “partially inhibited”.
Take `O=C(NCC1CCCCC1)c1cc(Cl)ccc1O` [Compound 161, 5-Chloro-N-(cyclohexylmethyl)-2-hydroxybenzamide]: in assay [1], the “Selectivity index (SI)” value is reported as over 100 and the inhibition at 10 µM was found to be 100%. Further, the EC50 in assay [1] (read-out: EC50 (plaque assay)) worked out at 0.78 µM. Further, the inhibition at 50 µM in assay [2] (A549, 48 h) amounted to 98.6 ± 14.8%. The EC50 in assay [2] (A549, 48 h, read-out: EC50 (entry assay, as worded in text)) was determined as 12.3 µM. In assay [2] (setting [5]), the IC50 was determined as 12.3 ± 4.8 µM. Moreover, the inhibition at 7.8 µM in assay [3] (read-out: inhibition of HAdV-5 DNA replication (qPCR)) turned out to be 50%. Besides, in assay [4] (FIG. 5B, 45 min post-infection, 10-fold plaque IC50), the “inhibition of accessibility of HAdV DNA to the nucleus” value is “more than 99%”.
